Legend:
A549 cells [1] = assay: Epithelial cell adherence and internalization assay of GBS 6313 in presence of proteins; assay type: cell-based, human; conditions: for adherence of GBS 6313 to A549 cells in the presence of fusion protein / invasion of A549 cells by GBS 6313 in the presence of fusion protein: 100 μg/ml fusion protein (FIG. 19)
Description: The adherence of GBS 6313 to A549 cells (A) and its internalization into these cells (B) was arbitrarily set to 100% and the results obtained in the presence of the different fusion proteins was related to these values. Each experiment was performed at least three times in triplicate.
Adherence of GBS to epithelial cells and internalization into epithelial cells was assayed essentially as described previously (Caparon et al., 1991; Rubens et al. 1992). Briefly, A549 cells were transferred to 24-well tissue culture plates at approximately 4×10^5 cells per well and cultivated overnight in RPMI (Gibco BRL) tissue culture medium, supplemented with 10% of fetal calf serum. After replacement of the medium with 1 ml of fresh medium, the cells were infected with 5×10^6 streptococci per well and incubated at 37° C. for 2 h. The non-adherent bacteria were removed by washing three times with PBS. In adherence assays, the epithelial cells were subsequently detached from the well by the addition of trypsin/EDTA and lysed by adding 300 μl of distilled water. Adherent bacteria were quantitated by plating serial dilutions of the lysate onto THY agar plates. For internalization assays the epithelial cells were incubated after 2 h of infection for another 2 h in tissue culture medium supplemented with penicilling G (10 U) and streptomycin (0.01 mg) to kill extracellular bacteria. After three washes with PBS, the epithelial cells were detached by the addition of trypsin/EDTA and lysed in 300 μl of distilled water. The amount of intracellular bacteria was quantified by plating serial dilutions of the lysate onto THY agar plates. Each experiment was repeated at least three times in triplicate. […]
Adherence of S. agalactiae to A549 and HEL299 cells and internalization into these cells was assayed essentially as described in Example 1 for A549 cells. In some experiments, A549 cells were preincubated with different amounts of FbsA protein or FbsA-derived peptides in RPMI medium for 30 min with three subsequent washes with PBS.

A549 cells [2] = assay: Interaction of protein-coated latex beads with A549 cells (scanning electron microscopy); assay type: cell-based, human
Description: BSA-coated latex beads were used as a control.
Latex beads were either coated with BSA (A) or FbsA fusion protein (B-D) and the interaction of the coated beads with the lung epithelial cell line A549 was analyzed by scanning electron microscopy.
Approximately […] latex beads (3 μm diameter, Sigma) were washed tree times in PBS and then coated with 300 μg of fusion protein or BSA in 500 μl PBS overnight at 4° C. Coated beads were washed once in PBS and then blocked with 200 μl of 10 mg/ml BSA in PBS for 1 h at room temperature. Beads were washed twice in PBS and once in RPMI+10% FCS and then resupended in 1 ml of RPMI+10% FCS. 300 μl of beads were added to approximately 4×10^5 A549 cells in 24-well plates. The cells were incubated for 1 h at 37° C. (5% CO2), washed five times with PBS and fixed in a solution containing 3% glutaraldehyde and 5% formaldehyde in cacodylate bluffer for 45 min on ice. The samples were washed with cacodylate buffer, dehydrated in a graded series of acetone and subjected to critical point drying with CO2. Samples were then coated with a 10 nm thick gold film and examined by scanning electron microscopy as described previously (Reinscheid et al., 2001a).
Approximately 1×10^9 latex beads (3 μm diameter, Sigma) were washed three times in 25 mM 2-N-morpholinoethanesulfonic acid (MES), pH 6.8. One half was resuspended in 1.0 ml MES buffer containing 500 μg/ml FbsA fusion protein and the remaining half was resuspended in 1.0 ml MES buffer. The beads were incubated overnight at 4° C. with end-over-end rotation. After pelleting of the beads by centrifugation, the amount of remaining protein in the supernatant was determined with a Bradford protein assay kit (BioRad). The beads were washed once with MES buffer and blocked for 1 h with 10 mg/ml BSA in MES buffer at room temperature. The beads were washed twice with MES buffer, once with RPMI+10% FCS, and resuspended in RPMI+10% FCS. Confluent A549 cells in 24-well plates were inoculated with 2×10^8 beads per well in a total volume of 1.0 ml. The bead monolayer mixtures were incubated for 2 h at 37° C. in a 5% CO2 atmosphere. Cells were washed five times with PBS and fixed with 3% paraformaldehyde and 4% glutaraldehyde in […] cacodylate buffer for scanning electron microscopy. Scanning electron microscopy was performed with a Zeiss DSM 962 microscope.

[3] = Subcutaneous immunization of mice and probing of fusion proteins with mice sera; assay type: in vivo; conditions: boost after three weeks, serum after six weeks, 1:1000 dilution
From the text: Serial dilutions of the fusion proteins PabA, PabB, and PabD were spotted onto nitrocellulose and probed with a 1:1000 dilution of the mice sera against the respective proteins. Bound antibodies were labelled with an anti-mouse-HRP conjugate and visualized by chemiluminescence.
To test, if the proteins PabA, PabB and PabD elicit an immune response in mice, purified PabA, PabB and PabD fusion protein was used for the subcutaneous immunization of mice. The mice were boosted after three weeks and serum was collected six weeks after the first immunization. Serial dilutions of the PabA, PabB, and PabD fusion proteins were blotted onto nitrocellulose and probed with the mice sera against the different proteins.

GBS strain 6313 = assay: Binding of radiolabelled human proteins to GBS; design: species or system Streptococcus agalactiae; conditions: untreated bacteria
Description: Purified human fibrinogen was radiolabelled with ^125I, using the chloramin T method (Hunter and Greenwood, 1962). Binding of labelled fibrinogen to GBS was performed essentially as described by Chhatwal et al. (Chhatwal, Muller, and Blobel, 1983). Briefly, overnight cultures of GBS were pelleted by centrifugation, washed twice with phosphate-buffered saline supplemented with 0.02% Tween 20 (PBST) and adjusted photometrically to a transmission of 10% at 600 nm. A total of 0.2 ml of the bacterial suspension was added to 20 μl of ^125I-labelled fibrinogen containing 23 ng of fibrinogen. After incubation for 1 h at room temperature, the streptococci were sedimented by centrifugation and washed with 1 ml of PBST. The radioactivity of the pellet was finally measured in a gamma counter (Packard Instruments). The amount of bacterial-bound fibrinogen was calculated as the percentage of total radiolabelled fibrinogen added to the bacteria. In inhibition experiments, the binding of 23 ng of radiolabelled fibrinogen to 0.2 ml of GBS (T=10%) was determined in the presence of various amounts of FbsA fusion proteins, Bsp fusion protein or synthetic peptides. Each experiment was repeated at least three times in triplicate.
GBS strain 6313, belonging to serotype III, was tested in binding experiments for its interaction with radiolabelled human vitronectin, laminin, fibronectin, fibrinogen, and IgG. […]

[4] = 1 μg/ml of externally added fibrinogen
[5] = fibrinogen 0.1 μg/ml to 1.0 μg/ml, fibronectin 10 μg/ml, data not shown

PabA
adherence of GBS 6313 to A549 cells in the presence of fusion protein (A549 cells [1]): significantly reduced
invasion of A549 cells by GBS 6313 in the presence of fusion protein (A549 cells [1]): significantly reduced
binding of protein-coated latex beads to A549 cells (A549 cells [2]): significant binding
immune response in mice (detection of fusion protein by mice sera) [3]: high immunogenicity

fibrinogen: purified human fibrinogen (Sigma), 330 kDa plasma glycoprotein [reference compound]
radiolabelled protein accumulated on the surface of GBS 6313 (of total) (GBS strain 6313): about 50%
reduction of the adherence of GBS 6313 to A549 cells (A549 cells [1]; [4]): 90%
reduction of the invasion of A549 cells by GBS 6313 (A549 cells [1]; [4]): 90%
bacterial adherence to A549 cells after pre-incubation of S. agalactiae 6313 with protein (A549 cells [1]; [5]): dose-dependent inhibition
bacterial invasion of A549 cells after pre-incubation of S. agalactiae 6313 with protein (A549 cells [1]; [5]): dose-dependent inhibition

B1: PabD: C-terminally his-tagged fusion protein of GBS 6313 PabD (gbs0851) devoid of signal peptide (protein)
chain: DDNFEMPTRYVKMSEKSKAFYQRLQEKQRKAHTTVKTFNNSEIRHQLPLKQEKARNDIYNLGILISQESKGFIQRIDNAYSLENVSDIVNEAQALYKRNYDLFEKIKSTRDKVQVLLASHQDNTDLKNFYAELDDMYEHVYLNESRVEAINRNIQKYN
modifications: left off: small tags and cut ends
notes: C-terminally his-tagged fusion protein of GBS 6313 PabD (gbs0851) devoid of signal peptide
adherence of GBS 6313 to A549 cells in the presence of fusion protein (A549 cells [1]): significantly reduced
invasion of A549 cells by GBS 6313 in the presence of fusion protein (A549 cells [1]): significantly reduced
binding of protein-coated latex beads to A549 cells (A549 cells [2]): significant binding
immune response in mice (detection of fusion protein by mice sera) [3]: high immunogenicity
